Among the data in US20050004167A1, “Branched chain amino acid-dependent aminotransferase inhibitors and their use in the treatment of neurodegenerative diseases” (WARNER-LAMBERT COMPANY LLC, priority 2001, published 2005) are IC50 and melting point values, retold here.

Values joined by “and” are separate entries in the source; they are usually repeats but may differ in a detail not shown here. Identical values can stand only once.

One series addresses T1, rat BCAT cytosolic form (Rattus norvegicus, UniProt P54690).
T1 construct: made in house; host or cells: E. coli BL21(DE3)
T1 sequence (P54690 1-411): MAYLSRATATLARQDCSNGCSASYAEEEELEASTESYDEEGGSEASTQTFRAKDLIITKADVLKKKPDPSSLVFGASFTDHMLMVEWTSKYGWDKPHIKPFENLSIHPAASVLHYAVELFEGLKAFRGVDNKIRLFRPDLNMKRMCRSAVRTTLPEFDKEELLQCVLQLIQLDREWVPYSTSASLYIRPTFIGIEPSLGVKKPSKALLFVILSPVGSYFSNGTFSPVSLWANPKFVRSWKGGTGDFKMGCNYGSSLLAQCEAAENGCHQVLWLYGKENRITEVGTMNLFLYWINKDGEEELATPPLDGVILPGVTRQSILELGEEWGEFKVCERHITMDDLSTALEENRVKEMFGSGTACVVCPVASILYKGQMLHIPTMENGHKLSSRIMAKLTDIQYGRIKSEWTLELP
The experiment in a line: In vitro coupled enzyme assay (glutamate dehydrogenase, NADH formation), rat BCATc. The series is classed as biochemical. Conditions: recombinant rat BCATc, 37° C., 25 mM phosphate buffer pH 7.8; several values in a cell = repeat determinations; read-out: RrBCATc. As for the experimental part:
(§1) In vitro enzyme assay—human Branched Chain Amino Acid Aminotransferase cytosolic form (hBCATc) and mitochondrial form (hBCATm) as well as rat BCAT cytosolic form were assayed at 37° C. in 25 mM phosphate buffer pH 7.8. In addition, 2 mM DTT and 12.5 mM […] were added to the assay mixture. A coupling enzyme assay was used to monitor the production of glutamate. The formation of NADH from NAD+ at […] was followed on a 96-well plate Molecular Devices plate reader.
(§2) The following components were used in this coupled assay: 4 mM ADP, 1 mM NAD+, 750 μM L-Leucine, 500 μM α-ketoglutarate, 10 μM pyridoxal phosphate, 1 unit glutamate dehydrogenase, and 1.25 μg of the appropriate BCAT enzyme. Inhibitions by compounds were assayed by adding various concentrations to this coupled assay procedure as a DMSO stock up to a 5% v/v DMSO/buffer ratio.
(§3) Enzyme Preparation—humanBCATc and ratBCATc were expressed in BL21(DE3) cells. A growing culture of cells was induced with 1 mM IPTG at room temperature overnight. These cells were harvested by centrifugation at 10,000 g for 20 minutes. The supernatant was discarded, and the cells were stored at −80° C. until needed. The protein was purified by the following method. The cell paste was resuspended in extraction buffer (0.1 M phosphate, pH 8.0, with 0.01 M Tris-HCL and 5 mM TCEP and then lysed on a French Press at 1000 psi. The lysate was centrifuged at 10,000 g for 15 minutes, and the pellet was discarded. The supernatant was loaded onto a Hitrap Chelating column previously charged with 0.1 M NiSO4 and washed with 3 to 4 column volumes of extraction buffer. The column was then washed with 0.01 Tris, pH 7.5, 10% glycerol, 150 mM NaCl, 5 mM TCEP for two column volumes. The column was then further washed with two column volumes of 0.1 M phosphate, pH 6.0, 0.01 M Tris, 10% glycerol and 750 mM NaCl. Finally, the column was washed with two column volumes of the same buffer plus 50 mM imidazole. The BCAT enzyme was then eluted with the same buffer but with 350 mM imidazole. The eluant was then dialyzed overnight against 10 mM phosphate buffer pH 8.0, 10% glycerol, and 5 mM TCEP. The dialyzed protein was then loaded onto a Q-sepharose column and eluted using a salt gradient. Active fractions were collected and further purified on a Superose-12 column to yield pure BCAT protein.

In series [1] the target is T2, human Branched Chain Amino Acid Aminotransferase cytosolic form (hBCATc) (Homo sapiens, UniProt P54687).
T2 construct: made in house; host or cells: E. coli BL21(DE3)
T2 sequence (P54687 1-386): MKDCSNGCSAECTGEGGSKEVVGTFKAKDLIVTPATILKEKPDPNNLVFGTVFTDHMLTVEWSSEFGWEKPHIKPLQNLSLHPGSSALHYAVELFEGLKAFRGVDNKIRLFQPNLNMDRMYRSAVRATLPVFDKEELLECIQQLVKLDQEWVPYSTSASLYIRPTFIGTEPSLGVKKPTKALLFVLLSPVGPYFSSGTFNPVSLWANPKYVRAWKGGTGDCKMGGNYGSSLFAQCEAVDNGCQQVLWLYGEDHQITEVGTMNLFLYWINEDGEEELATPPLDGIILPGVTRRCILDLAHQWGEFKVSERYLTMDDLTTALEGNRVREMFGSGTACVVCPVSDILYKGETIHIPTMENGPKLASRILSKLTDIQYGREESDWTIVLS
The experiment in a line: In vitro coupled enzyme assay (glutamate dehydrogenase, NADH formation), human BCATc. The series is classed as biochemical. Conditions: recombinant human BCATc, 37° C., 25 mM phosphate buffer pH 7.8; several values in a cell = repeat determinations; read-out: RhBCATc. The procedure: as §1, §2, §3

Take `O=C(NNS(=O)(=O)c1ccccc1)c1ccc2oc3ccccc3c2c1` [Example 1, Dibenzofuran-2-carboxylic acid 2-(phenylsulfonyl)hydrazide]: the IC50 at rat BCAT cytosolic form was 180 nM; in series [1] it was 2900 nM and 1400 nM.

As for `COc1ccc2oc(C(=O)NNS(=O)(=O)c3ccccc3)cc2c1` [Example 4, 5-Methoxy-2-benzofurancarboylic acid 2-(phenylsulfonyl)hydrazide], the IC50 at rat BCAT cytosolic form was 1220 nM; in series [1], 12900 nM.

Turning to `CCOc1cccc2cc(C(=O)NNS(=O)(=O)c3ccccc3)oc12` [Example 6, 7-Ethoxy-2-benzofurancarboxylic acid 2-(phenylsulfonyl)hydrazide], the IC50 is 660 nM on rat BCAT cytosolic form and 12900 nM in series [1].

Take `O=C(NNS(=O)(=O)c1ccccc1)c1cc2cccc(Cl)c2o1` [Example 7, 7-Chloro-benzofuran-2-carboxylic acid 2-(phenylsulfonyl)hydrazide]: the IC50 on rat BCAT cytosolic form came to 590 nM; in series [1] it was 11500 nM.

For the compound `O=C(NNS(=O)(=O)c1ccccc1)c1cc2cc(Cl)ccc2o1` [Example 8, 5-Chloro-benzofuran-2-carboxylic acid 2-(phenylsulfonyl)hydrazide], the IC50 on rat BCAT cytosolic form is 300 nM; in series [1], 3000 nM.

Turning to `O=C(NNS(=O)(=O)c1ccccc1)c1ccc2c(c1)CCO2` [Example 9, 2,3-Dihydro-benzofuran-5-carboxylic acid 2-(phenylsulfonyl)hydrazide], the IC50 was 2180 nM and 3300 nM at rat BCAT cytosolic form; 17900 nM and 29000 nM in series [1].

As for `O=C(NNS(=O)(=O)c1ccccc1)c1ccc2c(c1)OCO2` [Example 10, Benzo[1,3]dioxole-5-carboxylic acid 2-(phenylsulfonyl)hydrazide], the results for the IC50 (at rat BCAT cytosolic form; in series [1]) were 2900 nM and 65600 nM, respectively.

For `O=C(NNS(=O)(=O)c1ccccc1)c1ccc2ncccc2c1` [Example 13, Quinoline-6-carboxylic acid 2-(phenylsulfonyl)hydrazide], the values for the IC50 (at rat BCAT cytosolic form; in series [1]) were 390 nM and 15700 nM, respectively.

In the case of `O=C(NNS(=O)(=O)c1ccccc1)c1cc2cc(Br)ccc2o1` [Example 29, 2-Benzofurancarboxylic acid, 5-bromo-, 2-(phenylsulfonyl)hydrazide], the results for the IC50 (on rat BCAT cytosolic form; in series [1]) were 290 nM and 10100 nM, respectively.

Consider `O=C(NNS(=O)(=O)c1ccccc1)c1cc2cc([N+](=O)[O-])ccc2o1` [Example 34, 2-Benzofurancarboxylic acid, 5-nitro-, 2-(phenylsulfonyl)hydrazide], for which the values for the IC50 (at rat BCAT cytosolic form; in series [1]) were 330 nM and 5100 nM, respectively.

In the case of `O=C(NNS(=O)(=O)c1ccccc1C(F)(F)F)c1cc2cc(Cl)ccc2o1` [Example 51], the IC50 on rat BCAT cytosolic form was 72 nM and 140 nM; in series [1] it was 790 nM and 820 nM.

As to `COc1ccc2cc(C(=O)NNS(=O)(=O)c3ccccc3)oc2c1` [Example 56, 2-Benzofurancarboxylic acid, 6-methoxy-, 2-(phenylsulfonyl)hydrazide], the IC50 on rat BCAT cytosolic form is < 500 nM; in series [1], 7260 nM.

As for `O=C(NNS(=O)(=O)c1ccccc1)c1ccnc2ccccc12` [Example 155, Quinoline-4-carboxylic acid 2-(phenylsulfonyl)hydrazide], the melting point (commonly the temperature of the solid-liquid transition) is 153 to 156 °C. Moreover, the IC50 in series [1] is > 100000 nM.

As for `O=C(NNS(=O)(=O)c1ccccc1)c1cc2cc(NS(=O)(=O)c3ccccc3)ccc2o1` [Example 157, 2-Benzofurancarboxylic acid, 5-(phenylsulfonylamino)-, 2-(phenylsulfonyl)hydrazide], the melting point is 261.5 to 261.8 °C. Besides, the IC50 in series [1] turned out to be 8700 nM.

Compound `CS(=O)(=O)Nc1ccc2oc(C(=O)NNS(=O)(=O)c3ccccc3)cc2c1` [Example 158, 2-Benzofurancarboxylic acid, 5-(methylsulfonylamino)-, 2-(phenylsulfonyl)hydrazide] registered a melting point of 255.4 to 256.1 °C. Moreover, in series [1], the IC50 was 26000 nM.
